Assay results: US10722483B2, “Treatment of NAFLD and NASH” (CymaBay Therapeutics, Inc., priority 2014, dated 2020)
Read-outs that look alike come from different tables or passages of the source. One block for each compound: values may come before it.

Legend:
[1] = rodent models of NAFLD/NASH; cited from earlier work
[2] = cited from earlier work
[3] = 80 mg/day or placebo, NASH patients; cited from earlier work
[4] = normal mice; cited from earlier work
[5] = genetically obese ob/ob mice; cited from earlier work
[6] = healthy subjects, cited from earlier work
[7] = dyslipidemic subjects with abdominal obesity; cited from earlier work
[8] = development discontinued; cited from earlier work
PPARα = biological target: T1, PPARα (Homo sapiens, UniProt Q07869); test: Specificity of MBX-8025 compared with PPARα; type: biochemical
T1 sequence (Q07869 1-468): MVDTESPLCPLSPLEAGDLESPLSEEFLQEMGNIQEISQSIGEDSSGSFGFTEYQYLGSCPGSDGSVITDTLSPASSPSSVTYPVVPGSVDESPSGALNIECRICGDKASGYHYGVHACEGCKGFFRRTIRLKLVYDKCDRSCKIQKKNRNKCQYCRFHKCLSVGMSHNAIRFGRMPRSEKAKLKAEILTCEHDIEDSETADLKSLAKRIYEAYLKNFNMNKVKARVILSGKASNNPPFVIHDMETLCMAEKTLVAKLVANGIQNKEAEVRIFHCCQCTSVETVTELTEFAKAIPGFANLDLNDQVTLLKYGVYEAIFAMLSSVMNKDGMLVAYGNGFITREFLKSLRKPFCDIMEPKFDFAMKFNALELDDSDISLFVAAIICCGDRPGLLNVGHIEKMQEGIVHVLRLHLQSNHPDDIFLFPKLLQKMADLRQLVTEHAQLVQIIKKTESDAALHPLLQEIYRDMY

[9] = Example: subjects with NAFLD or NASH treated with MBX-8025 for 6 months; type: in vivo, human; details: 50 or 100 mg/day for 6 months
Method: Subjects are permitted their usual other medications (e.g. antidiabetic medications such as metformin or […]) but not glitazones, PPAR agonists, OCA, or similar medications. […] At each visit, after a 12-hour fast, blood is drawn and urine collected; and a standard metabolic panel, complete blood count, and standard urinalysis are performed. Blood is analyzed for total cholesterol, HDL-C, LDL-C, VLDL-C, TGs, apoB, and liver transaminases. The subjects also maintain health diaries, which are reviewed at each visit.

[10] = cited from earlier work; remark: listed apart in the source
[11] = NAFLD/NASH; cited from earlier work
[12] = both women and men; cited from earlier work

Structure (SMILES): CSc1ccc(C(=O)/C=C/c2cc(C)c(OC(C)(C)C(=O)O)c(C)c2)cc1 [GFT505]
hepatic steatosis, inflammation, fibrosis and liver dysfunction markers [1]: decreased
liver dysfunction markers including ALT, ALP and GGT ([2]; clinical studies): decrease
lipid-modifying efficacy (reduction in TGs, non-HDL-C, total cholesterol, LDL-C, apoB; increases in HDL-C) ([2]; healthy subjects and patients with T2DM, abdominal obesity, dyslipidemia, pre-diabetes, insulin resistance): confirmed
interim safety analysis at 6 months [3]: no safety issue

Structure (SMILES): Cc1cc(SCc2sc(-c3ccc(C(F)(F)F)cc3)nc2C)ccc1OCC(=O)O [GW510516]
diet-induced obesity and insulin resistance [4]: ameliorated
diabetes (glucose and insulin levels) [5]: markedly improved
reduction in hepatic fat ([6]; one of the Phase 1 studies): 20%
TGs, LDL-C, apoB, and insulin levels ([6]; two Phase 1 studies): reduce
decrease in fasting TGs [7]: 30%
decrease in fasting insulin [7]: 11%
reduction in LDL-C [7]: 23%
reduction in apoB [7]: 26%
reduction in fasting non-esterified fatty acids [7]: 40%
reduction in hepatic fat [7]: 20%
association with cancers in animal studies [8]: rapid development of cancers in several organs

specificity for PPARδ compared with PPARα receptor (PPARα): > 600 fold
Structure (SMILES): CCO[C@H](COc1ccc(C(F)(F)F)cc1)CSc1ccc(OCC(=O)O)c(C)c1 [MBX-8025, (R)-2-(4-((2-ethoxy-3-(4-(trifluoromethyl)phenoxy)propyl)-thio)-2-methylphenoxy)acetic acid]
improvement in disease as manifested by MRI and liver biopsy [9]: dose-related improvement
reduction in LDL-C in the tertile with the highest starting LDL-C levels (187-205 mg/dL) ([10]; 100 mg/day): 35%
reduction of LDL-C over the total population treated ([10]; 100 mg/day): 22%
reduction (decrease) of LDL-S/VS ([10]; 8 weeks): 40-48%
reduction of apoB100 compared to placebo ([10]; MBX-8025 50 or 100 mg alone and in combination with atorvastatin 20 mg, 8 weeks, P<0.05): 20-38%
raise of HDL-C ([10]; MBX-8025 alone and in combination with atorvastatin, 8 weeks): 1-12%
insulin sensitivity (HOMA-IR, fasting plasma glucose, and insulin) ([10]; in vivo): increases insulin sensitivity

Structure (SMILES): CC(C)c1c(C(=O)Nc2ccccc2)c(-c2ccccc2)c(-c2ccc(F)cc2)n1CC[C@@H](O)C[C@@H](O)CC(=O)O [atorvastatin]
reduction (decrease) of LDL-S/VS ([10]; 8 weeks): 25%

Structure (SMILES): CCCCCCCCCCC[C@@H](C[C@@H]1OC(=O)[C@H]1CCCCCC)OC(=O)[C@H](CC(C)C)NC=O [orlistat]
benefit compared to weight loss alone (diet and exercise) [11]: no significant benefit

Structure (SMILES): CCc1ccc(CCOc2ccc(CC3SC(=O)NC3=O)cc2)nc1 (centres unmarked) [pioglitazone]
risk of weight gain, edema, congestive heart failure, and osteoporotic fractures [12]: significantly increased risk
